Experiment: Monitoring of recipient monkeys by blood test during immunosuppressant administration
Type: in vivo, cynomolgus monkey
Conditions: blood test after start of administration
Description: Regarding the start day, the day of transplantation is represented by (0), and the preceding days are represented by the minus sign (−). Specifically, in the therapy, tacrolimus (0.02 mg/kg im×2/day; day −9 from start day), abatacept (50 mg/kg iv×1/week; day 7 from start day), and mycophenolate mofetil (40 mg/kg po×2/day; day −5 from start day) were used. The administration of methylprednisolone (10 mg/kg iv) was also carried out from day 0 from the start day, which was changed to oral administration (5 mg/kg) from the next day. […] Furthermore, thymoglobulin (10 mg/kg iv on day 3), rituximab (10 mg/kg iv on day 2), tocilizumab (10 mg/kg sc on day −1, 7, and 14), and etanercept (0.5 mg/kg sc on day 0, 3, 6, and 10) were administered. The concentrations of tacrolimus and mycophenolate mofetil in blood were measured twice a week, and the dose was appropriately adjusted based on the target trough level (TAC trough level: 15 to 20 ng/mL on day −9 to 2; 9 to 12 ng/ml from day 3, MMF trough level: 4 to 6 μg/mL).
The daily dietary status and activity of the recipient monkeys were monitored, and support was provided through supplementation as needed. Furthermore, the systemic condition of the monkeys was evaluated by the measurement of body weight. body temperature, and SpO2 as well as blood sampling conducted twice a week. […]

SMILES: COc1c(C)c2c(c(O)c1C/C=C(\C)CCC(=O)OCCN1CCOCC1)C(=O)OC2 [MMF, Mycophenolate mofetil]
- absorption: confirmed
